Key:
NF-κB [1] = assay: EMSA of NF-κB translocation / DNA binding in A549 cells; conditions: for NF-κB Stimulation / level of NF-κB translocation, fragments versus flagellin: A549 cells; for NF-κB Stimulation: 1 μg/ml, 45 min, EMSA of whole cell extracts; for level of NF-κB translocation, fragments versus flagellin / inducing NF-κB translocation: EMSA; for inducing NF-κB translocation: nuclear extracts of treated A549 lung cancer cells
NF-κB [2] = assay: EMSA of NF-κB binding activity in HT29 human colon cancer cells; assay type: cell-based; conditions: fragments 1 mg/ml, 15 min
Method: We further minimized the AA′ flagellin fragment by producing additional fragments through stepwise removal of peptide fragments from its N-terminal half (Table 2). […] NF-κB binding activity in HT29 cells was stimulated with TNFa (10 ng/ml), or flagellin fragments (1 mg/ml) for 15 min.

[3] = test system: mice treated with total body gamma radiation; assay: Mouse survival after total body gamma irradiation (radioprotection); assay type: in vivo; conditions: s.c. 5.0 μg/mouse (0.2 mg/kg)
Method: Whole body irradiation of mice with 15 Gy gamma radiation caused death within 8 days from GI syndrome providing a conventional model of radiation induced damage of GI tract. To test whether flagellin was capable of protecting GI epithelium from IR, we tested the effect of i.v.-injected flagellin on the dynamics of mouse lethality after 15 Gy of radiation. […] Irradiation was done 4 hours post treatment. As expected, control irradiated mice (that received PBS i.v.) died between 5 and 8 days post-treatment. […] Intravenous, intraperitoneal and subcutaneous delivery of 0.2 mg/kg of flagellin followed by 13 Gy irradiation afforded similar degree of protection, leading to 85-90% 30-day survival of mice (data not shown). While not being bound by theory, flagellin may be a radioprotectant due to its activation of NF-κB, which presumably acts as an inhibitor of apoptotic death.
The experiments were done similarly to the above-described ones (FIGS. 14 and 15), however, instead of 15Gy, mice received 10Gy, the dose that caused 100% killing in control group by day 13 (FIG. 6).
In order to further estimate the dependence of radioprotective activity of flagellin on the time of treatment, mice were injected at several time points relative to the moment of gamma-irradiation. Experiments were performed essentially as explained above, using intraperitoneal injection of 5 μg/mouse (0.2 mg/kg) of full-length flagellin or, for control mice, 5 μg/mouse (0.2 mg/kg) of bacterial RNA polymerase. The experiments were performed using the NIH-Swiss mouse strain. […] Only −1 h graph is shown for clarity, however, both timepoints (−1 and −2 h) provide similar degree and dynamics of survival.
We next obtained an estimate of radiation dose-dependent protection for flagellin. As shown above (FIG. 7), treatment with flagellin was sufficient for 100% protection against 10 Gy gamma-irradiation (this dose causes death from hematopoietic syndrome) and 90% 30-day survival at 13 Gy (both hematopoietic and GI syndromes). Experiments were performed as described above, using flagellin 5 μg/mouse (0.2 mg/kg), intraperitoneally injected 1 h before irradiation.
As shown above, full-length flagellin provides protection from both hematopoietic and gastrointestinal syndromes. The radioprotective potential of flagellin fragments was similarly tested after gamma-irradiation with 11 Gy (dose that induces hematopoietic syndrome-associated mortality in mice) or 14 Gy (dose that causes death from GI syndrome). Mice (10 animals per group) were injected subcutaneously with 5.0 μg/mouse (0.2 mg/kg) of flagellin or its fragments, AA′ or BB′, and gamma-irradiated 1 hour later.
In order to explore the limits of radioprotection provided by the AA′ fragment, we irradiated mice with 17 Gy and 20 Gy single doses of total body gamma-radiation.
We tested the ability of AA′ to protect mice that were exposed to it. A group of 20 NIH-Swiss mice were subcutaneously injected with 5 μg/mouse (0.2 mg/kg) of AA′. A second injection of a equal dose of AA′ was administered after 21 (10 mice) and 28 days (another 10 mice), with the time elapsed being sufficient for formation of antibodies. The second injection of AA′ was followed by 13 Gy of whole-body gamma irradiation (1 h post-injection).
Repetitive irradiation within a short period of time may be common, for example, in space radiation events and in clinical radiotherapy regimens. We tested the ability of the AA′ flagellin fragment to protect mice from sub-lethal (4 treatments of 3 Gy) and 100% lethal (4 treatments of 4 Gy) regimens of fractionated gamma-irradiation. Fragment AA′ or saline buffer was given to NIH-Swiss female mice before every irradiation (once a day for 4 days). AA′ was administered as described above for single-dose irradiation (5 μg/mouse, given subcutaneously 1 h before irradiation). […]
We have extensively confirmed that AA′ protects NIH-Swiss and ICR mice from radiation. […]

Molecule | NF-κB Stimulation (NF-κB [1]) | other results
GST-A′: GST-Linker-(402-505), SEQ ID NO: 26 | No | 
AA′n1-129: flagellin variant N-terminal 1-129, C-terminal 402-505, SEQ ID NO: 42 | Yes | 
AA′n54-163: (54-163)-Linker-(402-505), SEQ ID NO: 36 | Yes | induction of NF-κB translocation (NF-κB [2]): induce NF-κB translocation
AA′n54-129: flagellin variant N-terminal 54-129, C-terminal 402-505, SEQ ID NO: 44 | Yes | 
AA′n54-170: (54-170)-Linker-(402-505), SEQ ID NO: 32 | Yes | induction of NF-κB translocation (NF-κB [2]): induce NF-κB translocation; level of NF-κB translocation relative to flagellin (NF-κB [2]): comparable to that of flagellin
AA′n1-70: flagellin variant N-terminal 1-70, C-terminal 402-505, SEQ ID NO: 54 | No | 
BA′: flagellin fragment (56-177)-Linker-(402-505), SEQ ID NO: 12 | Yes | level of NF-κB translocation, fragments versus flagellin (NF-κB [1]): comparable; inducing NF-κB translocation (NF-κB [1]): capable of inducing NF-κB translocation
AA′n1-163: (1-163)-Linker-(402-505), SEQ ID NO: 34 | Yes | induction of NF-κB translocation (NF-κB [2]): induce NF-κB translocation; level of NF-κB translocation relative to flagellin (NF-κB [2]): comparable to that of flagellin
CA′: flagellin fragment (56-100)-Linker-(402-505), SEQ ID NO: 16 | No | 
B: flagellin N-terminus (56-177), SEQ ID NO: 22 (protein, Salmonella dublin) MRGSHHHHHHGMASMTGGQQMGRDLYDDDDKDPFTSNIKGLTQASRNANDGISIAQTTEGALNEINNNLQRVRELSVQATNGTNSDSDLKSIQDEIQQRLEEIDRVSNQTQFNGVKVLSQDNQMKIQVGANDGETITIDLQKIDVKSLGLDGFNVNSPG | No | 
AB′n1-163: flagellin variant N-terminal 1-163, C-terminal 402-450, SEQ ID NO: 40 (protein, Salmonella dublin) MRGSHHHHHHGMASMTGGQQMGRDLYDDDDKDPMAQVINTNSLSLLTQNNLNKSQSSLSSAIERLSSGLRINSAKDDAAGQAIANRFTSNIKGLTQASRNANDGISIAQTTEGALNEINNNLQRVRELSVQATNGTNSDSDLKSIQDEIQQRLEEIDRVSNQTQFNGVKVLSQDNQMKIQVGANDGETITIDLQKIIPGISGGGGGILDSMGTLINEDAAAAKKSTANPLASIDSALSKVDAVRSSLGAIQNRFDSAITNL | Yes | 
AB′n1-170: flagellin variant N-terminal 1-170, C-terminal 402-450, SEQ ID NO: 38 (protein, Salmonella dublin) MRGSHHHHHHGMASMTGGQQMGRDLYDDDDKDPMAQVINTNSLSLLTQNNLNKSQSSLSSAIERLSSGLRINSAKDDAAGQAIANRFTSNIKGLTQASRNANDGISIAQTTEGALNEINNNLQRVRELSVQATNGTNSDSDLKSIQDEIQQRLEEIDRVSNQTQFNGVKVLSQDNQMKIQVGANDGETITIDLQKIDVKSLGLIPGISGGGGGILDSMGTLINEDAAAAKKSTANPLASIDSALSKVDAVRSSLGAIQNRFDSAITNL | Yes | 
C: flagellin N-terminus (56-100), SEQ ID NO: 24 (protein, Salmonella dublin) MRGSHHHHHHGMASMTGGQQMGRDLYDDDDKDPFTSNIKGLTQASRNANDGISIAQTTEGALNEINNNLQRVRELSVQATSPG | No | 
CB′: flagellin fragment (56-100)-Linker-(402-450), SEQ ID NO: 18 (protein, Salmonella dublin) MRGSHHHHHHGMASMTGGQQMGRDLYDDDDKDPFTSNIKGLTQASRNANDGISIAQTTEGALNEINNNLQRVRELSVQATSPGISGGGGGILDSMGTLINEDAAAAKKSTANPLASIDSALSKVDAVRSSLGAIQNRFDSAITNL | No | 
AB′n1-70: flagellin variant N-terminal 1-70, C-terminal 402-450, SEQ ID NO: 56 (protein, Salmonella dublin) MRGSHHHHHHGMASMTGGQQMGRDLYDDDDKDPMAQVINTNSLSLLTQNNLNKSQSSLSSAIERLSSGLRINSAKDDAAGQAIANRFTSNIKGLTQASRNANDIPGISGGGGGILDSMGTLINEDAAAAKKSTANPLASIDSALSKVDAVRSSLGAIQNRFDSAITNL | No | 
AB′: flagellin fragment (1-177)-Linker-(402-450), SEQ ID NO: 10 (protein, Salmonella dublin) MRGSHHHHHHGMASMTGGQQMGRDLYDDDDKDPMAQVINTNSLSLLTQNNLNKSQSSLSSAIERLSSGLRINSAKDDAAGQAIANRFTSNIKGLTQASRNANDGISIAQTTEGALNEINNNLQRVRELSVQATNGTNSDSDLKSIQDEIQQRLEEIDRVSNQTQFNGVKVLSQDNQMKIQVGANDGETITIDLQKIDVKSLGLDGFNVNSPGISGGGGGILDSMGTLINEDAAAAKKSTANPLASIDSALSKVDAVRSSLGAIQNRFDSAITNL | Yes | level of NF-κB translocation, fragments versus flagellin (NF-κB [1]): comparable; inducing NF-κB translocation (NF-κB [1]): capable of inducing NF-κB translocation
BB′: flagellin fragment (56-177)-Linker-(402-450), SEQ ID NO: 14 (protein, Salmonella dublin) MRGSHHHHHHGMASMTGGQQMGRDLYDDDDKDPFTSNIKGLTQASRNANDGISIAQTTEGALNEINNNLQRVRELSVQATNGTNSDSDLKSIQDEIQQRLEEIDRVSNQTQFNGVKVLSQDNQMKIQVGANDGETITIDLQKIDVKSLGLDGFNVNSPGISGGGGGILDSMGTLINEDAAAAKKSTANPLASIDSALSKVDAVRSSLGAIQNRFDSAITNL | No | 30-day survival, 11 Gy ([3]; 1 hour before 11 Gy): 0%; 30-day survival, 14 Gy ([3]; 1 hour before 14 Gy): 0%
A: flagellin N-terminus (1-177), SEQ ID NO: 20 (protein, Salmonella dublin) MRGSHHHHHHGMASMTGGQQMGRDLYDDDDKDPMAQVINTNSLSLLTQNNLNKSQSSLSSAIERLSSGLRINSAKDDAAGQAIANRFTSNIKGLTQASRNANDGISIAQTTEGALNEINNNLQRVRELSVQATNGTNSDSDLKSIQDEIQQRLEEIDRVSNQTQFNGVKVLSQDNQMKIQVGANDGETITIDLQKIDVKSLGLDGFNVNSPG | No | 
